We go through 1 compound from patent publication US7151093B2, “Use of sphingosine 1-phosphate as active ingredient for the treatment of pulmonary fibrosis” (Ono Pharmaceutical Co., Ltd., priority 1999, dated 2006).

The subject of the assay is Bleomycin-induced Lung Injury Model Animal. The assay is described as follows: Bleomycin-induced lung injury model, lung tissue hydroxyproline content. It is filed as in vivo, ICR male mice. The procedure: Production of Bleomycin-induced Lung Injury Model Animal:
Using each of ICR male mice and under pentobarbital (60 mg/kg, i.v.) anesthesia, the cervical region was shaved and the skin was incised for about 4 mm from under the larynx region along the median line. Next, the muscle layer covering upper trachea was peeled off to expose the trachea. Using a micro-syringe, physiological saline or bleomycin hydrochloride (0.03 mg/animal, manufactured by Nippon Kayaku) was administered tracheally (50 μl/animal) from the tracheal smooth muscle region between cricoid cartilage. After the administration, the incised region was closed and antibiotics were administered into the thigh intramuscularly in order to prevent infection. S1P (10 mg/5 ml/kg, 0.5% aqueous solution of carboxymethylcellulose sodium (CMC.Na)-physiological saline, manufactured by Matreya) was intraperitoneally administered once a day for 14 days after the bleomycin induction. […]
The hydrolyzed supernatant (25 μl) was mixed with borate-alanine buffer (2.475 ml) separately prepared, and potassium chloride (solid) was added thereto until it was saturated. […] The absorbance of each sample was immediately measured at 560 nm, and the amount of hydroxyproline in the sample was calculated from a calibration curve.
The inhibition ratio was calculated by the following equation. […]

Regarding `CCCCCCCCCCCCC/C=C/[C@H](O)[C@H](N)COP(=O)(O)O` (stereo in doubt) [S1P, sphingosine 1-phosphate], the “Inhibition ratio: suppression of bleomycin-induced increase of hydroxyproline content” value ([{(C−B)−(S−B)}÷(C−B)]×100, S1P 10 mg/kg i.p. once a day for 14 days, ICR male mice) is “ca. 90%”. In addition, the Hydroxyproline content (bleomycin-induced (0.03 mg/animal, tracheal) ICR male mice, S1P 10 mg/5 ml/kg i.p. once a day for 14 days, lung excised fifteen days after induction) is on record as 227.8 ± 17.5 μg/lung.
